This note sets out measurements from ChEMBL document CHEMBL1131055, “Discovery of type II (covalent) inactivation of S-adenosyl-L-homocysteine hydrolase involving its "hydrolytic activity": synthesis and evaluation of dihalohomovinyl nucleoside analogues derived from adenosine” (J Med Chem, 1998).

For assay [1], the target named is T1, Adenosylhomocysteinase (Homo sapiens, UniProt P23526). Nature of the assay: The kinetic constant for inhibition of S-adenosyl-homocysteine hydrolase obtained from human placenta by the compound.
Target sequence in this assay (P23526 2-432 limits assumed): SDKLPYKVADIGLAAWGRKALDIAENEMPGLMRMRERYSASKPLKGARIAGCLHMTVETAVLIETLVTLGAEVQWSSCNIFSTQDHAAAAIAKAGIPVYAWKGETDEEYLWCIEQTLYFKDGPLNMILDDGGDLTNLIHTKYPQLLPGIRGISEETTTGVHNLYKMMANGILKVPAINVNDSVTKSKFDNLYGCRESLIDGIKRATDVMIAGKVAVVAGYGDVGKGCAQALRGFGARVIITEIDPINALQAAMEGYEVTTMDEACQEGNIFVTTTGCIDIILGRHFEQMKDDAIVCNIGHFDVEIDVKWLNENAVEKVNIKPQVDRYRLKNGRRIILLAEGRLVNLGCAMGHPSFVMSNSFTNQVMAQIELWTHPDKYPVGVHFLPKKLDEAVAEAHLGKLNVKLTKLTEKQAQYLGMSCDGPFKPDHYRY
For assay [2], the target named is T1, Adenosylhomocysteinase. Nature of the assay: The kinetic constant for inhibition of S-adenosyl-homocysteine hydrolase by the compound.
Target sequence in this assay (P23526 whole entry): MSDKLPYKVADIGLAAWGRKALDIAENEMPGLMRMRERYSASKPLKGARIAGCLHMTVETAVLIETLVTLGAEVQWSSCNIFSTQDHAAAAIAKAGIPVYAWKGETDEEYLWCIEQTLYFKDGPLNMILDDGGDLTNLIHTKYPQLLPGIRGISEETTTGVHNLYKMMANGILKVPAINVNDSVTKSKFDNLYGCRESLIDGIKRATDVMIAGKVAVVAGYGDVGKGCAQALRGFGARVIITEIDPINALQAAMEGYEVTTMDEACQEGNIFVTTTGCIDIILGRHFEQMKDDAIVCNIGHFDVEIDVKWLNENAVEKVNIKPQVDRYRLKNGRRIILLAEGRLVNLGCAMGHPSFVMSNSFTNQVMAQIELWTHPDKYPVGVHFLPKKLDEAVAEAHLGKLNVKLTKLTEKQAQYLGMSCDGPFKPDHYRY
The nature of assay [3]: Ratio of Kinact value to that of Ki value.

Molecules are shown by their SMILES.

Regarding `Nc1ncnc2c1ncn2C1O[C@H](/C(Br)=C\Br)[C@@H](O)[C@H]1O` (some centres undefined), the K inact in assay [1] was found to be 0.081 min⁻¹. Besides, the Ki in assay [2] amounted to 3.6 µM. The K inact/Ki in assay [3] turned out to be 375 M⁻¹ s⁻¹.

In the case of `Nc1ncnc2c1ncn2C1O[C@H](/C=C(/F)Br)[C@@H](O)[C@H]1O` (some centres undefined), the K inact in assay [1] came out at 0.04 min⁻¹. In addition, the affinity in assay [2] corresponds to a Ki of 3.9 µM. In addition, the K inact/Ki in assay [3] came to 170 M⁻¹ s⁻¹.

Regarding `Nc1ncnc2c1ncn2C1O[C@H](C=C(Br)Br)[C@@H](O)[C@H]1O` (some centres undefined), the K inact in assay [1] came out at 0.036 min⁻¹. In addition, in assay [2], the affinity corresponds to a Ki of 3.1 µM. In assay [3], the K inact/Ki is 193 M⁻¹ s⁻¹.
